The record followed here is patent US20130096012A1, “METHOD AND KIT FOR IDENTIFYING A TRANSLATION INITIATION SITE ON AN MRNA” (CORNELL UNIVERSITY, priority 2011, published 2013).

Assay [1] concerns HEK293 cells. Nature of the assay: Polysome profiling by sucrose gradient sedimentation of drug-treated cells. As to conditions: 100 μM CHX or 50 μM LTM, 30 min, compared to no-drug treatment (DMSO), FIG. 7. In kind it is cell-based, Human. As for the experimental part: FIG. 7 is a series of graphs showing polysome profile analysis in cells treated with ribosome E-site translation inhibitors. In particular, HEK293 cells were pre-treated with equal volume of DMSO, 100 μM CHX, or 50 μM LTM for 30 min followed by sucrose gradient sedimentation. Both 80S monosome and polysome peaks are indicated.
HEK293 or MEF cells were treated with 100 μM CHX, 50 μM LTM, 2 μg/ml harringtonine or DMSO at 37° C. for 30 min. Cells were lysed in polysome buffer and cleared lysates were separated by sedimentation through sucrose gradients. Collected polysome fractions were digested with RNase I and the RPF fragments were size selected and purified by gel extraction. […] The trimmed RPF reads with final lengths of 26-29 nt were aligned to the RefSeq transcript sequences by Bowtie-0.12.7 allowing one mismatch. A TIS position on individual transcript was called if the normalized LTM reads density at the every nucleotide position subtracting with that of CHX was well above the background. In analysis of non-coding RNA, only reads unique to single ncRNA were used. […]
Sucrose solution was prepared in polysome buffer (pH 7.4, 10 mM HEPES, 100 mM KCl, 5 mM MgCl2). […] Separated samples were fractionated at 0.750 ml/min through a fractionation system (Isco) that continually monitored OD254 values. […]

The subject of assay [2] is HEK293 cells. Description: Ribosome profiling (deep sequencing of ribosome-protected mRNA fragments, GTI-seq) of drug-treated cells. The conditions noted are these: 30 min, FIG. 1C; for distribution of RPF reads relative to the annotated start codon: 100 μM CHX, 50 μM LTM or 2 μg/ml harringtonine, metagene analysis, 1D. In kind it is cell-based, Human. An excerpt: FIGS. 1A-D show the experimental strategy of GTI-seq using ribosome E-site translation inhibitors. Specifically, FIG. 1A is a schematic diagram of the experimental design for GTI-seq. Translation inhibitors cycloheximide (“CHX”) and lactimidomycin (“LTM”) bind to the ribosome E-site, resulting in inhibition of translocation. While CHX binds to all translating ribosomes (FIG. 1A, left panel), LTM preferably incorporates into the initiating ribosomes when the E-site is free of tRNA (FIG. 1A, right panel). FIG. 1B is a schematic illustration showing ribosome profiling using CHX and LTM side-by-side, which allows distinguishing the initiating ribosome from the elongating one. FIG. 1C is a graph showing data related to HEK293 cells being treated with either DMSO, 100 μM CHX, or 50 μM LTM for 30 min before ribosome profiling. Normalized RPF reads were averaged across the entire transcriptome, aligned at either their start site or stop codon. FIG. 1D presents two graphs showing metagene analysis of RPFs obtained from HEK293 cells treated with either harringtonine (FIG. 1D, left panel) or LTM (FIG. 1D, right panel). All mapped reads were aligned at the annotated start codon AUG, and the reads density at each nucleotide position was averaged using the P-site of RPFs.
HEK293 or MEF cells were treated with 100 μM CHX, 50 μM LTM, 2 μg/ml harringtonine or DMSO at 37° C. for 30 min. Cells were lysed in polysome buffer and cleared lysates were separated by sedimentation through sucrose gradients. Collected polysome fractions were digested with RNase I and the RPF fragments were size selected and purified by gel extraction. After the construction of sequencing library from these fragments, deep sequencing was performed using IlluminaHiSEQ. The trimmed RPF reads with final lengths of 26-29 nt were aligned to the RefSeq transcript sequences by Bowtie-0.12.7 allowing one mismatch. A TIS position on individual transcript was called if the normalized LTM reads density at the every nucleotide position subtracting with that of CHX was well above the background. In analysis of non-coding RNA, only reads unique to single ncRNA were used. To experimentally validate the identified TIS codons, specific genes encompassing both the 5′UTR and the CDS were amplified by RT-PCR from total cellular RNAs extracted from HEK293 cells. The resultant cDNAs were cloned into pcDNA3.1 containing c-myc tag at the COOH-terminus. After transfection into HEK293 cells, whole cell lysates were used for immunoblotting using anti-myc antibody.
Human HEK293 and mouse embryonic fibroblast (“MEF”) were maintained in Dulbecco's Modified Eagle's Medium (“DMEM”) with 10% fetal bovine serum (“FBS”). Cycloheximide was purchased from Sigma and harringtonine from LKT Laboratories. […]

The structures appear in SMILES notation.

`C[C@@H]1C[C@@H]([C@H](O)CC2CC(=O)NC(=O)C2)C(=O)[C@@H](C)C1` [CHX, cycloheximide]: the “effect on polysome profile (80S monosome and polysome peaks)” value with HEK293 cells [1] is recorded as “slightly stabilized the polysomes”. Further, the “distribution of RPF reads relative to the annotated start codon” value in the assay with HEK293 cells [2] was “an excess of RPFs at the beginning of ORFs in addition to the body of CDS”.
For the compound `COC(=O)C[C@](O)(CCC(C)(C)O)C(=O)O[C@@H]1C(OC)=C[C@]23CCCN2CCc2cc4c(cc2[C@H]13)OCO4` [harringtonine], the “distribution of RPF reads relative to the annotated start codon” value in the assay on HEK293 cells [2] is listed as “a substantial fraction of RPFs accumulated in regions downstream of the start codon”.
In the case of `C/C(=C\[C@H](C)C(=O)C[C@H](O)CC1CC(=O)NC(=O)C1)[C@@H]1OC(=O)/C=C/CC/C=C/C=C\[C@@H]1C` [LTM, lactimidomycin], the “effect on polysome profile (80S monosome and polysome peaks)” value in the assay with HEK293 cells [1] was “large increase in monosome accompanied by a depletion of polysomes”. The “effect on ribosome (RPF) density at the stop codon” value with HEK293 cells [2] (50 μM LTM, versus untreated cells or CHX) is listed as “eliminated the excess of ribosomes seen at the stop codon”. In addition, the “distribution of RPF reads relative to the annotated start codon” value in the assay on HEK293 cells [2] is “pronounced single peak located at the −12 nucleotide (nt) position relative to the annotated start codon”.
